Measurements taken from patent publication US5367062A, “Disubstituted and deoxydisubstituted derivatives of α-d-lyxofuranosides having anti-inflammatory and anti-proliferative activity” (Medicarb Inc., priority 1992, dated 1994).
pIC50: −log10 of the molar value. Structures can show the parent of a compound that is named as a salt.

Assays:
[1] = test system: T cells (BALB/CBYJ responder spleen cells with C57BL/6J stimulator spleen cells); assay: Mixed lymphocyte response (MLR); type: cell-based; conditions: Mus musculus, T-cell, 120 h; estimated; 5 days incubation; MTT
Source text: i Mixed lymphocyte response (MLR).
(§1) The MLR assay measures the effects of a study compound on the activation and antigen presentation of T-lymphocytes, therefore determining immunomodulatory properties. The mouse spleen cell mitogen-induced blastogenesis and the BUD-8 human fibroblast proliferation assays measure the effects of the compounds of the present invention on cellular proliferation of cells involved in the pathogenesis of autoimmune diseases. These two assays are appropriate as screens to ascertain anti-inflammatory and/or autoimmune diseases.
The MLR is a classical assay used to measure T cell function by studying the proliferation response of T cells which are activated in vitro by genetically disparate stimulator cells. This is accomplished by co-culturing spleen cells from two different strains of mice. Splenic T cell proliferation occurs as a result of cellular activation signals generated by the ongoing cellular interactions.
In performing MLR assays, BALB/CBYJ mice were euthanized by cervical dislocation and their spleens removed. Single cell suspensions were prepared in culture medium (RPMI-1640 with hepes supplemented with 10% calf serum, 2 mM glutamine, 500 units penicillin/streptomycin and 4×10^-5 M 2-mercaptoethanol) using a Teflon pestle. The cells were centrifuged at 1500 RPM and the pellets resuspended in ACT (0.15 M Tris, 0.14 M ammonium chloride, pH 7.2 ) in order to lyse the red blood cells. After a 5 minutes incubation at 37° C. waterbath, the cells were washed and resuspended in culture medium. The splenic lymphocytes were counted. C57BL/6J spleen cells, which were used as stimulator cells, were prepared in the same way. The stimulator cells were treated with 50 μm/ml of mitomycin C for 20 minutes at 37° C., then washed five times in culture medium. The proliferative response were measured by culturing 5×10^5 responder spleen cells with 5×10^5 stimulator cells in 96-well microtiter plates in the presence or absence of test article or vehicle (DMSO). Syngeneic control cultures using mitomycin C treated normal BALB/C spleen cells as the stimulator cells were also run. All cultures were run in triplicate.
Solutions of compounds of the present invention in DMSO were prepared at a stock concentration of 300 mM. Solutions were made in a culture medium to a concentration of 1, 10, 30, 100, and 300 μM. The vehicle DMSO was used as a negative control.
After incubation for 5 days at 37° C. with 5% carbon dioxide, the amount of cell proliferation was measured by adding 20 μl of MTT (10 mg/ml in PBS) (3-[4,5-dimethylthiazol-2-yl]-2,5-diphenyltetrazolium bromide) to each well. plates were incubated for 4 hours at 37° C., after which 180 μl of supernatant was removed and 180 μl of 10% SDS in PBS was added. After an overnight incubation, the optical density (OD) of each well was read on a Molecular Devices microplate reader at 570-650 nm.
The results were determined by calculating the difference between the means of the allogeneic cultures and the means of the syngeneic cultures for each test compound concentration. Differences of the test article groups were compared to the difference of the control group. The percent change from the control was determined and an IC50 estimated. The criteria used to establish activity levels were:
Sixteen (16) novel compounds were assayed for their ability to modulate a Mixed Lymphocyte Response in vitro. The test compounds were added to MLR cultures to give final concentrations of 1, 10, 30, 100, and 300 μm. The responses observed in the test article treated wells were compared to the control wells. […] Based on the estimated IC50 all the test compounds were strong inhibitors of the MLR.

mouse spleen cells = assay: Concanavalin A assay (mouse spleen cell mitogen induced blastogenesis); type: cell-based; conditions: 72 h, estimated, Con-A 1.25 μg/ml, 3 days, MTT
Source text: iii Concanavalin A assay (the mouse spleen cell mitogen induced blastogenesis).
as §1
It is known that the induction and maintenance of most inflammatory diseases are typically due to the unrestricted activity of T-lymphocytes. Therefore, it is advantageous to identify compounds which are modulators of T-lymphocyte activity for eventual use in the regulation of inflammatory diseases, including acquired immune deficiency syndrome, psoriasis, systemic lupus, erythromatosus, and rheumatoid arthritis.
A simple method is used to screen compounds for their ability to modulate T-lymphocyte activity which comprises assessing the capacity of the compounds to alter the activation of murine spleen cells in response to T-lymphocyte mitogen activators, such as Conconavalin-A (Con-A). The method used to measure the effects of the compounds of the present invention on the blastogenic response of spleen cells to the T-lymphocyte mitogen (Con-A) is as follows:
The response of a mouse spleen cells to the T cell mitogen ConA is a classical assay. In this assay, mice were euthanized by cervical dislocation and their spleens removed surgically. A single cell suspension of the spleens was prepared in culture medium (RPMI-1640 with hepes, supplemented with 10% calf serum, 2 mM glutamine, 500 units penicillin/streptomycin, and 4×10^-5 M 2-mercaptoethanol) using a Teflon pestle. The cells were centrifuged at 1500 RPM and the pellets resuspended in ACT (0.15 M Tris, 0.14 M Ammonium chloride, pH 7.2) in order to lyse the red blood cells. After a five minutes incubation in 37° C. waterbath, the cells were washed and resuspended in culture medium. The splenic lymphocytes were counted using an electronic Coulter Counter and diluted to 5.0×10^6 cells/mi.
The test articles were diluted in culture medium to the appropriate concentrations. Aliquots 100 μl were distributed to triplicate wells in a 96-well microtiter plate. 50 μl of lymphocytes (2.5×10^5 cells) were added to each well. Control wells with vehicle and wells with media were also run. Plates were incubated for one hour at 37° C. 50 μl of Con-A (5 μl/ml) were then added to the wells to result in a final concentration of 1.25 μg/ml. After incubation at 37° C. with 5% carbon dioxide for 3 days, proliferation was measured by adding 20 μl of MTT (10 mg/mlin PBS) [3-(4,5-dimethyl-thiazol-2-yl)-2,5-diphenyltetrazoliumbromidel to each well. Plates were incubated for 4 hours at 37° C., after which 180 μl of 10% SDS in PBS were added. After an overnight incubation, the optical density (OD) of each well was read using a Molecular Devices microplate reader at 570-650 nm.
(§2) Duplicate cultures without Con-A were also set up. After 3 days of incubation, supernatants were assayed for lactate dehydrogenase activity to determine the viability of the cells, which is an indication of the toxicity of the test article on the splenic lymphocytes. 0.1 ml of supernatant was mixed with 0.1 ml of the LDH substrate mixture which contains 5.4×10^-2 M L(+) lactate, 6.6×10^-4 M 2-p-iodophenyl-3-p-nitrophenyl tetrazolium chloride, 2.8×10^-4 M phenazine methosulfate, 1.3×10^-3 M AND, and 0.2 M Tris buffer, pH 8.2. Plates were read immediately for 5 minutes at 490 nm using a Molecular Devices microplate reader.
The mean for each test article treated group was determined and compared to the mean of the control group. The percent change from the control was calculated, and the IC50 was estimated. […]

BUD-8 human fibroblast = assay: BUD-8 human cell line fibroblast proliferation assay; type: cell-based; conditions: 72 h, estimated, BUD-8 cells, 3 days, MTT
Source text: ii BUD-8 human cell line fibroblast proliferation assay.
as §1
The skin cell fibroblast line, BUD-8, was originally derived from the normal skin of a person and can now be obtained from the American Type Culture Collection, Rockville, Md. The concentration of the compounds which were used in this assay were: 1, 10, 30, 100, and 300 μM. The vehicle was used as the negative control. Test compounds were prepared in DMSO at a stock concentration of […]. Appropriate dilutions were made in culture medium.
In this assay BUD-8 cells were collected, counted, and diluted to 2×10^4 cells/ml. 0.1 ml was plated per well to give 2×10^3 cells/well. The compounds of the present invention were diluted in culture medium to the appropriate concentrations. Aliquotes of 100 μl were distributed to triplicate wells. Control wells with vehicle and wells with media were also run. After a three day incubation at 37° C. with 5% carbon dioxide, proliferation was measured by adding 20 μl of MTT (10 mg/ml in PBS) (3-[4,5-dimethyl thiazol-2-yl]-2,5diphenyl-tetrazolium bromide) to each well. Plates were incubated for 4 hours at 37° C., after which 180 μl of 10% SDS in PBS were added. After an overnight incubation, the optical density (OD) of each well was read using a Molecular Devices microplate reader at 570-650 nm.
as §2, with “cultures” for “cultures without Con-A”, “set up to measure viability.” for “set up.”, “dehydrogenase (LDH)” for “dehydrogenase”, “the BUD-8 cells.” for “the splenic lymphocytes.”, “of supernatent” for “of supernatant”, “Tris buffer. PH” for “Tris buffer, pH”
The mean for each test article treated group was determined and compared to the mean of the control group. The percent change from the control was calculated, and the IC50 estimated. The criteria used to establish activity levels were:
Sixteen (16) test articles were assayed for their ability to inhibit fibroblast proliferation. The test article were added to BUD-8 cell cultures to give final concentrations of 1, 10, 30, 100, and 300 μM. The proliferation observed in the test article treated wells were compared to the DMSO control wells.

[2] = test system: various tumor cell lines, derived from seven cancer types; assay: Tumor cell line screens (leukemia, melanoma, lung, colon, renal, ovarian, brain cancer); type: cell-based; conditions: average over tumor cell lines; read-out: GI (Average GI50) (converted)
Description: The compounds of the present invention were also tested against various tumor cell lines, derived from seven cancer types. These include leukemia, melanoma, lung cancer, colon cancer, renal cancer, ovarian cancer, and brain cancer. Most of the compounds have shown significant activity in various screens, particularly against colon cancer and melanoma.

rheumatoid arthritis = conditions: cited from earlier work

Row | SMILES | pIC50 [1] | pIC50 (mouse spleen cells) | pIC50 (BUD-8 human fibroblast) | GI50 [2] [µM] | Anti-inflammatory activity (in words) (rheumatoid arthritis; in vivo) | Utility in managing the signs and symptoms of rheumatoid arthritis (in words) (rheumatoid arthritis; late Phase III clinical trials)
1 | CCCCCCCCCOCCCO[C@H]1O[C@H](CNCCCN2CCCC2)[C@@H]2OC(C)(C)O[C@H]12 [XXIV, n-Nonyloxypropyl 5-deoxy-2,3-0-(1-methylethylidene)-5-aminopropylpyrrolidinyl-α-D-lyxofuranoside] | 6.07 | 5.60 | 4.80 | – | – | –
2 | CN(C)CCCOC[C@H]1O[C@H](OCCCc2ccccc2)[C@H]2OC(C)(C)O[C@H]21 [X] | > 6.00 | 4.26 | 3.52 | 91.2 | – | –
3 | CN(C)CCCO[C@@H]1[C@H]2OC(C)(C)O[C@H]2O[C@@H]1[C@H](O)CO [Amiprilose. HCl, 1,2-0-isopropylidene-3-0-3'-(N',N'-dimethylaminopropyl)-α-D-glucofuranose] | – | – | – | – | known to have anti-inflammatory activity | demonstrated utility in managing the signs and symptoms of rheumatoid arthritis
4 | CCCCCCCCCOCCCO[C@H]1O[C@H](COCCN2CCCC2)[C@@H]2OC(C)(C)O[C@H]12 [V, n-Nonyloxypropyl 2,3-0-(1-methlethylidene)-5-0-N'-ethylpyrrolidinyl-α-D-lyxofuranoside] | > 6.00 | 5.54 | 4.55 | 5.62 | – | –
5 | CCCCCCCCCNC[C@H]1O[C@H](OCCCc2ccccc2)[C@H]2OC(C)(C)O[C@H]21 [XXIX, Phenylpropyl 5-deoxy-2,3-0-(1-methylethylidene)-5-aminononyl-α-D-lyxofuranoside] | 5.82 | 5.30 | 4.70 | 32.4 | – | –
6 | CC1(C)O[C@@H]2[C@@H](OCCCc3ccccc3)O[C@H](CN3CCCC3)[C@@H]2O1 [XXV, Phenylpropyl 5-deoxy-2,3-0-(1-methylethylidene)-5-pyrrolidinyl-α-D-lyxofuranoside] | 4.92 | 4.60 | 3.70 | 95.5 | – | –
7 | CCCCCCCCCOCCCO[C@H]1O[C@H](COCCN2CCCCC2)[C@@H]2OC(C)(C)O[C@H]12 [VI, n-Nonyloxypropyl 2,3-0-(1-methlethylidene)-5-0-N'-ethylpiperidinyl-α-D-lyxofuranoside] | 6.30 | 5.57 | < 4.00 | – | – | –
8 | CCCCCCCCCOCCCO[C@H]1O[C@H](CN2CCCC2)[C@@H]2OC(C)(C)O[C@H]12 [XVI] | > 6.00 | 5.46 | 4.24 | 5.13 | – | –
